pIC50: −log10 of the molar value. Several values for one entry are separate records, joined by “and”; a condition that tells them apart may be missing. Equal values may be shown once. Entries after “also recorded” stand apart in the source; their conditions may differ. Read-outs that look alike come from different tables or passages of the source.
Assays:
mouse T lymphocytes = assay: T-cell proliferation assay (ionomycin plus PMA induced, tritiated thymidine uptake); type: cell-based, mouse (C57Bl/6)
Method: The principle of this assay is to measure the proliferation of mouse T lymphocytes stimulated with the combination of ionomycin plus PMA. A positive sample in this assay will inhibit T-cell proliferation, as indicated by reduced tritiated thymidine uptake.
Purified demethomycin, as prepared by HPLC above, was dissolved in absolute ethanol at 1 mg/ml.
Spleens from C57Bl/6 mice were taken under sterile conditions and gently dissociated in ice-cold RPMI 1640 culture medium (GIBCO, Grand Island, N.Y.) supplemented with 10% heat-inactivated fetal calf serum (GIBCO). Cells were pelleted by centrifugation at 1500 rpm for 8 minutes. Contaminating red cells were removed by treating the pellet with ammonium chloride lysing buffer (GIBCO) for 2 minutes at 4° C. Cold medium was added and cells were again centrifuged at 1500 rpm for 8 minutes. T lymphocytes were then isolated by separation of the cell suspension on nylon wool columns as follows: Nylon wool columns were prepared by packing approximately 4 grams of washed and dried nylon wool into 20 ml plastic syringes. The columns were sterilized by autoclaving at 250° F. for 30 minutes. Nylon wool columns were wetted with warm (37° C.) culture medium and rinsed with the same medium. Washed spleen cells resuspended in warm medium were slowly applied to the nylon wool. The columns were then incubated in an upright position at 37° C. for 1 hour. Non-adherent T lymphocytes were eluted from the columns with warm culture medium and the cell suspensions were spun as above.
Purified T lymphocytes were resuspended at 2.5×10^5 cells/ml in complete culture medium composed of RPMI 1640 medium with 10% neat-inactivated fetal calf serum, […], 1 mM sodium pyruvate, 2×10^-5 M 2-mercaptoethanol and 50 μg/ml gentamycin. Ionomycin was added at 250 ng/ml and PMA at 10 ng/ml. The cell suspension was immediately distributed into 96 well flat-bottom microculture plates (Costar) at 200 μl/well. The control, being the medium without test drug, and various below-indicated dilutions of the sample (above-describedpurified demethomycin; to be tested were then added in triplicate wells at 20 μl/well. L-679,934 was used as a standard. The culture plates were then incubated at 37° C. in a humidified atmosphere of 5% CO2 -95% air for 44 hours. The proliferation of T lymphocytes was assessed by measurement of tritiated thymidine incorporation. After 44 hours of culturing, the cells were pulse-labelled with 2 μCi/well of tritiated thymidine (NEN, Cambridge, MA). After another 4 hours of incubation, cultures were harvested on glass fiber filters using a multiple sample narvester. Radioactivity of filter discs corresponding to individual wells was measured by standard liquid scintillation counting methods (Betacounter). Mean counts per minute of replicate wells were calculated and the results expressed as percent inhibition of tritiated thymidine uptake (proliferation) as follows: [formula]
1. Mouse T cell cultures were pulsed with ^3 Hthymidine for 4 hours
prior to harvesting at 48 hours.

[1] = reputed; immunosuppressant, vs cyclosporin; cited from earlier work

| SMILES | inhibition at 0.01 µg/mL (mouse T lymphocytes; Mus musculus, T-lymphocyte, read-out: % inhibition of T-cell proliferation (standard)) | effectiveness relative to cyclosporin [1] | Reversal of inhibition of T-cell proliferation by recombinant IL2 (mouse T lymphocytes; 50 μ/ml of IL2 (recombinant IL2) added at initiation of culture) | inhibition at 0.00029 µg/mL (mouse T lymphocytes; Mus musculus, T-lymphocyte, 0.29 ng/ml, harvest at 48 hours) | inhibition at 0.00044 µg/mL (mouse T lymphocytes; Mus musculus, T-lymphocyte, 0.44 ng/ml, harvest at 48 hours) | inhibition at 0.00066 µg/mL (mouse T lymphocytes; Mus musculus, T-lymphocyte, 0.66 ng/ml, harvest at 48 hours) | inhibition at 0.00099 µg/mL (mouse T lymphocytes; Mus musculus, T-lymphocyte, 0.99 ng/ml, harvest at 48 hours) | inhibition at 0.0015 µg/mL (mouse T lymphocytes; Mus musculus, T-lymphocyte, 1.5 ng/ml, harvest at 48 hours) | inhibition at 0.0022 µg/mL (mouse T lymphocytes; Mus musculus, T-lymphocyte, 2.2 ng/ml, harvest at 48 hours) | inhibition at 0.0033 µg/mL (mouse T lymphocytes; Mus musculus, T-lymphocyte, 3.3 ng/ml, harvest at 48 hours) | inhibition at 0.005 µg/mL (mouse T lymphocytes; Mus musculus, T-lymphocyte, 5 ng/ml, harvest at 48 hours) | IC50 (mouse T lymphocytes; Mus musculus, T-lymphocyte, T-cell proliferation, harvest at 48 hours, read-out: IC50) | pIC50 (mouse T lymphocytes; Mus musculus, T-lymphocyte, generally in the range, read-out: IC50, general range) | immunosuppressive activity / inhibition of T-cell activation (qualitative) (mouse T lymphocytes; T-cell proliferation assay) |
| --- | --- | --- | --- | --- | --- | --- | --- | --- | --- | --- | --- | --- | --- | --- |
| C=CC[C@@H]1/C=C(\C)C[C@H](C)C[C@H](OC)[C@H]2O[C@@](O)(C(=O)C(=O)N3CCCC[C@H]3C(=O)O[C@H](/C(C)=C/[C@@H]3CC[C@@H](O)[C@H](OC)C3)[C@H](C)[C@@H](O)CC1=O)[C@H](C)C[C@@H]2OC [L-679,934, reference compound] | 99% | 100 times |  |  |  |  |  |  |  |  |  |  |  |  |
| C=CC[C@@H]1/C=C(\C)C[C@H](C)C[C@H](OC)[C@H]2O[C@@](O)(C(=O)C(=O)N3CCCC[C@H]3C(=O)O[C@H](/C(C)=C/[C@@H]3CC[C@@H](O)[C@H](O)C3)[C@H](C)[C@@H](O)CC1=O)[C@H](C)C[C@@H]2OC [demethomycin, 31-desmethoxy-31-hydroxy-L-679,934] |  |  | reversed | 0% | 0% | 36.8% | 67.1% | 80.5% | 92.9% | 97.2% | 98.1% | 0.00086 µg/mL and 1.09 nM | 8.92 to 9.22 | positive inhibition of T-cell activation; also recorded: positive immunosuppressive activity |
